Experimental data from EPA's ToxValDB 9.5 (doi:10.2903/j.efsa.2012.2921).
Where “and” joins values, the source holds several entries; their conditions need not be identical. Identical values can stand only once.

Experiments:
[1] = test system: Oryctolagus sp.; conditions: reproduction developmental; no effects
[2] = test system: Anas platyrhynchos
[3] = test system: Pimephales promelas; conditions: chronic/long-term; duration: 33 days; growth
[4] = test system: Daphnia magna; conditions: chronic/long-term; duration: 21 days; reproduction
[5] = test system: Apis mellifera; conditions: acute, mortality
[6] = test system: Bibionidae; conditions: chronic/long-term; duration: 28 days
[7] = test system: Rattus norvegicus; conditions: for NOAEL: no effects
[8] = test system: Folsomia candida; conditions: chronic/long-term
[9] = test system: Colinus virginianus
[10] = test system: Mus musculus; conditions: no effects
[11] = test system: Oncorhynchus mykiss; conditions: acute; duration: 96 hours; mortality
[12] = test system: Canidae; conditions: chronic; duration: 1 years; oral; Dog Other; no effects
[13] = test system: Tagia sp.; conditions: acute; duration: 14 days; mortality
[14] = subchronic, duration: 90 days, oral

## CCCCCCCCc1c(CC)nc2ncnn2c1N [Ametoctradin]
[1]
  NOAEL: 1000 mg/kg-day
[2]; acute, oral, unspecified, mortality
  LD50: > 2000 mg/kg-day
[2]; reproductive
  NOEC: ≥ 188 mg/kg-day
[2]; short-term, oral, feed, mortality
  LC50: > 1550 mg/kg-day
[3]
  NOEC: 0.048 mg/L
[4]
  NOEC: 0.044 mg/L
[5]; dermal
  LD50: > 100 µg/piece
[5]; oral, unspecified
  LD50: > 112 µg/piece
[6]
  NOEC: 222 mg/kg
[7]; acute, oral, mortality
  LD50: > 2000 mg/kg-day
[7]; chronic, duration: 2 years
  NOAEL: 871 mg/kg-day
[7]; reproduction developmental
  NOAEL: ≥ 939 mg/kg-day and 1000 mg/kg-day
[7]; [14]
  NOAEL: 1080 mg/kg-day
[8]
  NOEC: ≥ 268 mg/kg
[9]; acute, oral, diet, mortality
  LC50: > 758 mg/kg-day
[9]; acute, oral, mortality
  LD50: > 2000 mg/kg-day
[9]; reproduction developmental
  NOEC: ≥ 115 mg/kg-day
[10]; chronic, duration: 18 months
  NOAEL: 1100 mg/kg-day
[10]; [14]
  NOAEL: 1120 mg/kg-day
[11]
  LC50: > 0.0646 µg/mL
[12]
  NOAEL: 848 mg/kg-day
[13]
  LC50: > 1000 mg/kg
